We go through two compounds from US12589158B2 (priority 2022, dated 2026).

The target of one data set is T1, human GLP-1 receptor (Homo sapiens, UniProt P43220).
T1 construct: expressed in transfected cells; crude membranes
As to the kind of experiment: In vitro binding activity to human GLP-1 receptor ([125I]GLP-1, crude cellular membranes). The conditions noted are these: ratio of the Ki value of the endogenous ligand to the Ki value of the test compound; larger = stronger binding. The method, then: 89 μL of membrane dissolved in binding buffer (50 mM Hepes, pH 7.4, 5 mM MgCl2, 5 mM EDTA, 0.005% TWEEN, 0.005% HSA) is transferred to a 96-well test plate (5 μg/well). The compound is serially diluted in DMSO, and then, 1 μL of the diluted compound or 100% DMSO is added to the test plate containing the membrane solution. 10 μL of [^125I] […] The test plate is left at room temperature for 90 minutes. The membrane complexes are harvested into a GF/B plate pre-coated with 0.5% PEI by using a Cell Harvester, and washed for 3 times with 500 μL of pre-cooled elution buffer (50 mM Hepes, pH 7.4, 500 mM NaCl) at 4° C. After drying at 37° C. for 2 hours, 50 μL of scintillation fluid is added to each well. The plate is read with a MicroBeta2 scintillation counter after sealing and settling for at least 1 hour so as to determine the membrane bound radioligand level.
The absolute IC50 concentration of the compound is derived by non-linear regression of the binding percent of [^125I] […] The IC50 concentration is converted to Ki (Ki is the inhibition constant) using the Cheng-Prusoff equation.

A short description of data set [1]: Pharmacokinetics following single administration in SD rat. The settings on record: in vivo, sc, 50 nmol/kg. Further details: species or system SD rats. The essentials: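 Male SD rats (230–268 g, n=3) dosed once at 50.0 nmol/kg s.c. or 25.0 nmol/kg i.v. Plasma protein precipitated with acetonitrile containing internal standards; drug concentration measured by LC-MS/MS.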

For the next data set, the system named is db/db mice. Nature of the data set: Pharmacodynamics in db/db mice, single subcutaneous administration (blood glucose). The settings on record: Group 2, single s.c. 10 nmol/kg, longest time with random blood glucose P<0.05 vs. vehicle. The class given is in vivo. The method, then:
The “inhibition of blood glucose AUC” as disclosed in the present invention is the reduction percentage of blood glucose AUC in the group taken the test compound as compared with the group taken the Vehicle. Inhibition of blood glucose AUC=(blood glucose AUCVehicle-blood glucose AUCtest compound)/blood glucose AUCVehicle.
In this study, 8-9 week old male db/db mice are used. The db/db mice are placed in an individual ventilated cage (IVC) facility with a controlled temperature (20-26° C.) and humidity (40-70%) and a controlled 12h: 12 h light-dark cycle. The mice received food and water ad libitum. Blood is sampled at the tail tip, and the fasting blood glucose is measured by a Roche blood glucose meter. The mice are randomly divided into groups according to the initial blood glucose and initial body weight (n=6/group), and each group had similar body weight and blood glucose.
After a single subcutaneous administration, the random blood glucoses are recorded at the set time point (0 to 120 hours, the recording of the random blood glucose is stopped until there is no difference between the random blood glucose of the compound and that of the vehicle group), and the daily body weight and food intake are also recorded. The data results are statistically analyzed using GraphPad Prism8, and the statistical differences among the groups are analyzed following a T-Test. […]

Data set [2] is described as follows: Pharmacokinetics in beagle dogs. The conditions noted are these: 0.05 mg/kg. The class given is in vivo. The method, then:
After subcutaneous administration to beagle dogs, plasma is collected and the drug concentration in plasma is determined to illustrate the in vivo pharmacokinetic properties of the compound according to the present invention. The compound of the present invention is administered to a beagle dog (7-9 kg) at a dose of 0.05 mg/kg subcutaneously (s.c.). About 500 μL of whole blood is collected from the saphenous vein into an EDTA-K2 anticoagulant tube at predose, 0.5 hours, 1 hour, 2 hours, 6 hours, 10 hours, 24 hours, 48 hours, 72 hours and 96 hours, respectively. The blood samples are centrifuged at 3000 g and at 2° C. to 8° C. for 10 minutes to obtain plasma, which is stored at −90° C. to −60° C. for further analysis and assay.
20.0 μL of thawed plasma sample is taken. […] Then 120 μL of 0.1% formic acid methanol is added to precipitate the protein. The mixture is vortexed for 5 minutes, and centrifuged at 4815 g for 10 minutes. 100.0 μL of the supernatant is taken, into which 100 μL of 0.5% aqueous formic acid solution is added. The mixture is vortexed for 5 minutes. 10 μL of the mixture solution is sampled and injected into the LC-MS/MS to determine the drug concentration in plasma.
Based on the drug concentration in plasma of the compound in the beagle dogs, the pharmacokinetic parameters are calculated by applying the software Winnolin 8.3 in a non-compartmental model.

Data set [3] can be described thus: Pharmacokinetics in C57 mice. The conditions noted are these: mouse, in vivo. The method, then:
After subcutaneous or intravenous administration to C57 mice, plasma is collected and the drug concentration in plasma is determined to illustrate the in vivo pharmacokinetic properties of the compound according to the present invention. […] 20.0 μL of thawed plasma sample is taken. 20 μL of 50% aqueous methanol solution (containing 100 ng mL^−1 internal standard) and 60 μL of acetonitrile are added sequentially to precipitate protein. The mixture is vortexed for 5 minutes, and centrifuged at 3700 rpm for 8 minutes. 50.0 μL of the supernatant is taken, into which 50.0 μL of 0.5% aqueous formic acid solution is added. The mixture is vortexed for 5 minutes. 50 μL of the mixture solution is sampled and injected into the LC-MS/MS to determine the drug concentration in plasma.

The conditions of data set [4]: in vivo.
Data set [5] is classed as in vivo. The conditions noted are these: rat, in vivo, male SD rats. The method, then: (§1) 77 SD male rats (SPF grade) are selected and randomly divided into 10 groups based on body weight. Group 1 is the vehicle control group, including 5 animals. […] Group 5 to Group 7 are the groups administrated with the test substance 1; and Group 8 to Group 10 are the groups administrated with the test substance 2, each group including 8 animals, wherein 5 animals for primary test, and 3 animals for toxicokinetics test, and the administration dose is 1, 3 and 10 mg/kg respectively. Each of the above groups is continuously administered twice a week for 2 weeks (administrating at Day 1, Day 5, Day 8, Day 12 and Day 15).
(§2) During the experiment, the cage condition monitoring, detailed clinical observations, determination of the food consumption, determination of body weight, measurement of the blood biochemical and hematology indicator, investigation of the gross anatomy, weighing of the organ, studying on toxicokinetic are performed on all the groups of the animals.
(§3) Original data during each time period is tabulated. The average values and standard deviations and/or group change are calculated for each assay endpoint based on the group and sex. For each endpoint, the administrated group will be compared with the control group in the following aspect. A logarithmic conversion is performed to the endpoint data as desired prior to the start of the specific analyses.

The next data set relates to SD male rats. The class given is in vivo. The method, then:
as §1, §2, §3

Data set [6] is described as follows: Pharmacokinetics in cynomolgus monkeys. The settings on record: cynomolgus monkey, in vivo.
Where [7] appears, read: male SD rats, twice a week for 2 weeks, 1, 3, 10 mg/kg.

Like-named read-outs stand apart in the source and are kept apart here.

T1 sequence (P43220 24-463): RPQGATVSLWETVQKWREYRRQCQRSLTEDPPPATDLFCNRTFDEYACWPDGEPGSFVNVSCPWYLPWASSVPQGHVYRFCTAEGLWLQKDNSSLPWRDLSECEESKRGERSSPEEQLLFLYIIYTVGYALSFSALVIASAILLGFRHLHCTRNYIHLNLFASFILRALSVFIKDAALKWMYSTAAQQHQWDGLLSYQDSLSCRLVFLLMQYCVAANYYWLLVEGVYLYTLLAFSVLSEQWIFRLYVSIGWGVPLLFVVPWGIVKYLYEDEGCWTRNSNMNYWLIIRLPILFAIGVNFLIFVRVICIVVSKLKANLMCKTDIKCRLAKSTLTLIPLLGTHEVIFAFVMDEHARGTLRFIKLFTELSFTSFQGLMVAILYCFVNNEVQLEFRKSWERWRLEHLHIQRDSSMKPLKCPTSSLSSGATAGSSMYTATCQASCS

As to `CC[C@H](C)[C@H](NC(=O)C(C)(C)NC(=O)[C@H](Cc1ccc(O)cc1)NC(=O)[C@H](CC(=O)O)NC(=O)[C@H](CO)NC(=O)[C@@H](NC(=O)C(C)(Cc1ccccc1)NC(=O)[C@@H](NC(=O)CNC(=O)[C@H](CCC(=O)O)NC(=O)C(C)(C)NC(=O)[C@@H](N)Cc1ccc(O)cc1)[C@@H](C)O)[C@@H](C)O)C(=O)NC(C)(C)C(=O)N[C@@H](CC(C)C)C(=O)N[C@@H](CC(=O)O)C(=O)N[C@@H](CCCCN)C(=O)N[C@@H](CCC(N)=O)C(=O)N[C@@H](C)C(=O)N[C@@H](CCC(N)=O)C(=O)N[C@@H](C)C(=O)N[C@@H](CCC(=O)O)C(=O)N[C@@H](Cc1ccccc1)C(=O)N[C@H](C(=O)N[C@@H](CCCCNC(=O)COCCOCCNC(=O)COCCOCCNC(=O)CC[C@H](NC(=O)CC[C@H](NC(=O)CC[C@H](NC(=O)CCCCCCCCCCCCCCCCC(=O)O)C(=O)O)C(=O)O)C(=O)O)C(=O)N[C@@H](Cc1c[nH]c2ccccc12)C(=O)N[C@@H](CC(C)C)C(=O)N[C@@H](CC(C)C)C(=O)N[C@@H](CCCCN)C(=O)NCC(=O)NCC(=O)N1CCC[C@H]1C(=O)N[C@@H](CO)C(=O)N[C@@H](CO)C(=O)NCC(=O)N[C@@H](C)C(=O)N1CCC[C@H]1C(=O)N1CCC[C@H]1C(=O)N1CCC[C@H]1C(=O)N[C@@H](CO)C(=O)N[C@@H](CCCCN)C(N)=O)C(C)C` (stereo partly drawn) [P015], the “GLP-1R Ki ratio” value at human GLP-1 receptor is 0.17. In data set [1], this compound displayed an MRT inf of 31.4 ± 1.35 h and an MRT last of 26.8 ± 0.557 h. The “Hypoglycemic Duration” value in the data set on db/db mice came out at 32 h.
`CC[C@H](C)[C@H](NC(=O)C(C)(C)NC(=O)[C@H](Cc1ccc(O)cc1)NC(=O)[C@H](CC(=O)O)NC(=O)[C@H](CO)NC(=O)[C@@H](NC(=O)C(C)(Cc1ccccc1)NC(=O)[C@@H](NC(=O)CNC(=O)[C@H](CCC(=O)O)NC(=O)C(C)(C)NC(=O)[C@@H](N)Cc1ccc(O)cc1)[C@@H](C)O)[C@@H](C)O)C(=O)NC(C)(C)C(=O)N[C@@H](CC(C)C)C(=O)N[C@@H](CC(=O)O)C(=O)N[C@@H](CCCCN)C(=O)N[C@@H](CCC(N)=O)C(=O)N[C@@H](C)C(=O)N[C@@H](CCC(N)=O)C(=O)N[C@@H](C)C(=O)N[C@@H](CCC(=O)O)C(=O)N[C@@H](Cc1ccccc1)C(=O)N[C@H](C(=O)N[C@@H](CCCCNC(=O)COCCOCCNC(=O)COCCOCCNC(=O)COCCOCCNC(=O)CC[C@H](NC(=O)CCCCCCCCCCCCCCCCCCCCC(=O)O)C(=O)O)C(=O)N[C@@H](Cc1c[nH]c2ccccc12)C(=O)N[C@@H](CC(C)C)C(=O)N[C@@H](CC(C)C)C(=O)N[C@@H](CCCCN)C(=O)NCC(=O)NCC(=O)N1CCC[C@H]1C(=O)N[C@@H](CO)C(=O)N[C@@H](CO)C(=O)NCC(=O)N[C@@H](C)C(=O)N1CCC[C@H]1C(=O)N1CCC[C@H]1C(=O)N1CCC[C@H]1C(=O)N[C@@H](CO)C(=O)N[C@@H](CCCCN)C(N)=O)C(C)C` (stereo partly drawn) [P016] had an AUC(0-t) in data set [2] (beagle dogs, single subcutaneous administration, plasma) of 29.925 µg·h/mL. The MRT inf in [2] (dog, in vivo, sc) came out at 108 ± 23.2 h; in data set [3] (iv), 26.6 h; in [3] (sc), 35.9 h; in data set [1], 31.1 ± 1 h; in data set [6] (iv, 12.5 nmol/kg), 72.9 ± 10.9 h; in data set [6] (sc, 25 nmol/kg), 101 ± 19.2 h. Also, the MRT last in [2] (dog, in vivo, sc) came out at 44.8 ± 4.17 h; in [3] (iv), 19.9 h; in data set [3] (sc), 26 h; in data set [1] it was 28.1 ± 1.12 h; in data set [6] (iv, 12.5 nmol/kg), 65.3 ± 8.85 h; in data set [6] (sc, 25 nmol/kg), 96.5 ± 15.9 h. Further, the T1/2 in data set [2] (dog, in vivo, sc) stood at 69.32 h; in data set [1] it was 14.1 ± 0.153 h; in [6] (iv, 12.5 nmol/kg) it was 59.81 ± 8.95 h; in data set [6] (sc, 25 nmol/kg) it was 60.40 ± 12.80 h. In data set [4], the “heart rate recovery time” value was in the range of 72 to 120 h. Moreover, in [4], the “increase in HR” value is listed as “lower than that for Tirepatide”. Also, the MTD in data set [5] (MTD for 2 weeks, twice a week) is 1.92 µmol/kg; in data set [5] (continuously administered twice a week for 2 weeks) it was more than 10 mg/kg. Besides, the “Toxicokinetic: Cmax and AUC versus dose” value in the data set on SD male rats (male SD rats, 1, 3, 10 mg/kg) is “increase nearly proportionally to the dose”. Also, the “Toxicokinetic: accumulation” value with SD male rats (male SD rats, continuously administered twice a week for 2 weeks) is “no substantial accumulation”. Further, the “Food Intake” value with SD male rats (setting [7]) is recorded as “dose-dependent decrease”. Further, in the data set with SD male rats (setting [7]), the “Gross Anatomy” value is given as “no abnormalities are found”. In addition, the “Safety Window (based on dosage)” value in the data set on SD male rats (rat MTD for 2 weeks vs efficacy dose in db/db mice) turned out to be 1282.

What is called MRT inf is the average time that molecules of a dose stay in the body. Broadly, the MRT last is a mean duration of stay, worked out from the concentration-time curve. Broadly, the AUC(0-t) is the area under the concentration-time curve up to a stated or last time point. A lower AUC(0-t) goes with low exposure.
